From US9120749B2, “Quinoline derivatives and MELK inhibitors containing the same” (ONCOTHERAPY SCIENCE, INC., priority 2010, dated 2015)
Where a name gives a salt, the structure may show the parent alone. Read-outs that look alike come from different tables or passages of the source.

Experiments:
T47D cells = experiment: Cell-based assay: anti-proliferative activity, Cell Counting Kit-8, 72 hours (T47D)
How it was run: (§1)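 Anti-MELK western blot on crude lysates → MELK status per line. Cells plated 96-well, compound exposure, CCK-8 readout at 72 h; IC50 calculated.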

MELK = MELK (Homo sapiens, UniProt Q14680); experiment: Kinase assay: MELK activity, phosphorylation of FITC-labeled histone H3 peptide measured by IMAP fluorescence polarization; format: biochemical; details: read-out: IC50 (μM) (kinase assay)
How it was run: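 Compounds, serially diluted from 12.5 mM DMSO stocks to 1% final DMSO, were tested with FITC-labeled histone H3 peptide as substrate. The reaction was stopped with progressive binding solution. Fluorescence polarization was read after 0.5 hour at room temperature.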

DU4475 cells = experiment: Cell-based assay: anti-proliferative activity, Cell Counting Kit-8, 72 hours (DU4475)
HT-1197 cells = experiment: Cell-based assay: anti-proliferative activity, Cell Counting Kit-8, 72 hours (HT-1197, negative control without MELK expression); details: HT1197 cells (negative control, no MELK expression), 72 hours
How it was run: as §1

22Rv1 cells = experiment: Cell-based assay: anti-proliferative activity, Cell Counting Kit-8, 72 hours (22Rv1); details: Homo sapiens, 22Rv1, 72 h
A549 cells = experiment: Cell-based assay: anti-proliferative activity, Cell Counting Kit-8, 72 hours (A549); details: 72 hours
How it was run: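 A549 cells seeded in 96-well plates and exposed to candidate inhibitors for 72 hours. Growth measured with Cell Counting Kit-8; IC50 values calculated from the dose response.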

[1] = MELK kinase assay, IMAP fluorescence polarization, 50 micro-M ATP

Chain of MELK (Q14680 whole entry, looked up): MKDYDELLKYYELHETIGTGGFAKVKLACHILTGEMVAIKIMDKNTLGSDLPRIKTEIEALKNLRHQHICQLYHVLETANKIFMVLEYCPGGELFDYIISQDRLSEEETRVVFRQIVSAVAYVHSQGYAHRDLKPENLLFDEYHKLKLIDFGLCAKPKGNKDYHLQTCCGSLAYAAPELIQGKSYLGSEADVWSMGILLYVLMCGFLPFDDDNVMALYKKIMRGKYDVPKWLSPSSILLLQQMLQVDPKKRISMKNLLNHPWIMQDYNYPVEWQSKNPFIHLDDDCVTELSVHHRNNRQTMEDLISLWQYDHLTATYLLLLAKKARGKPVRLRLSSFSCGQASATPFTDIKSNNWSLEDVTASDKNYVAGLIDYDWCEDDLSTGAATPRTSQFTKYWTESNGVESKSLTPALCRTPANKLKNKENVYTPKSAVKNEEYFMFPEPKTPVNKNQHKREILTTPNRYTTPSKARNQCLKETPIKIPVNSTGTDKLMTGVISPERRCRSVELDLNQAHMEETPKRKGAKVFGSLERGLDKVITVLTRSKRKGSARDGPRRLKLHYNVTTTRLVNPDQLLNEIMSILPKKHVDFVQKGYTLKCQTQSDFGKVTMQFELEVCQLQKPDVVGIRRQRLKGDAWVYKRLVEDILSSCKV

SMILES | IC50 (T47D cells; Homo sapiens, T47D, 72 h) [µM] | IC50 (MELK) [µM] | IC50 (DU4475 cells; Homo sapiens, DU-4475, 72 h) [µM] | IC50 (HT-1197 cells; Homo sapiens, HT1197, 72 h) [µM] | IC50 (22Rv1 cells) [µM] | IC50 (A549 cells; Homo sapiens, A549, 72 h) [µM] | IC50 (MELK; [1]) [µM] | IC50 (T47D cells; 72 hours, hydrochloride) [µM] | IC50 (MELK; hydrochloride) [µM] | IC50 (DU4475 cells; hydrochloride) [µM] | IC50 (HT-1197 cells; hydrochloride) [µM] | IC50 (A549 cells; hydrochloride) [µM] | IC50 (HT-1197 cells) [µM]
COc1cc(-c2ccc3ncc(C(C)=O)c(N[C@H]4CC[C@H](CN5CCC[C@H]5CO)CC4)c3c2)cc(Cl)c1O [Example 793, 1-(6-(3-chloro-4-hydroxy-5-methoxyphenyl)-4-((1S,4r)-4-(((S)-2-(hydroxymethyl)pyrrolidin-1-yl)methyl)cyclohexylamino)quinolin-3-yl)ethanone] | 0.15 | 0.0018 | 0.33 | 7.1 | 0.34 | 0.17 |  |  |  |  |  |  | 
CC(=O)c1cnc2ccc(-c3cc(F)c(O)c(Cl)c3)cc2c1Nc1ccc(OCCN(C)C)nc1 [Example 848, 1-(6-(3-chloro-5-fluoro-4-hydroxyphenyl)-4-(6-(2-(dimethylamino)ethoxy)pyridin-3-ylamino)quinolin-3-yl)ethanone hydrochloride] | 0.14 |  | 0.16 | 5.3 | 0.44 | 0.29 | 0.011 |  |  |  |  |  | 
CC(=O)c1cnc2ccc(-c3cc(F)c(O)c(Cl)c3)cc2c1N[C@H]1CCC[C@H](CCN(C)C)C1 [Example 862, 1-(6-(3-chloro-5-fluoro-4-hydroxyphenyl)-4-(((1S,3R)-3-(2-(dimethylamino)ethyl)cyclohexyl)amino)quinolin-3-yl)ethanone hydrochloride] | 0.26 |  | 0.2 | 1.1 | 0.2 | 0.29 | 0.0067 |  |  |  |  |  | 
CNC1CCCN(c2ccc(Nc3c(C(=O)C4CC4)cnc4ccc(-c5cc(Cl)c(O)c(Cl)c5)cc34)cn2)C1 (stereo not drawn) [Example 807, cyclopropyl(6-(3,5-dichloro-4-hydroxyphenyl)-4-((6-(3-(methylamino)piperidin-1-yl)pyridin-3-ylamino)quinolin-3-yl)methanone trihydrochloride] | 0.058 | 0.0015 | 0.032 | 1.1 | 0.055 | 0.056 |  |  |  |  |  |  | 
CN(C)CCc1cccc(Nc2c(C(=O)C3CC3)cnc3ccc(-c4cc(F)c(O)c(F)c4)cc23)c1 [Example 796, cyclopropyl(6-(3,5-difluoro-4-hydroxyphenyl)-4-(3-(2-(dimethylamino)ethyl)phenylamino)quinolin-3-yl)methanone] | 0.43 | 0.026 | 0.14 | 0.67 | 0.52 | 0.14 |  |  |  |  |  |  | 
CC(=O)c1cnc2ccc(-c3cc(F)c(O)c(Cl)c3)cc2c1N[C@H]1CC[C@H](CN2CCNCC2)CC1 [Example 783, 1-(6-(3-chloro-5-fluoro-4-hydroxyphenyl)-4-((trans-4-(piperazin-1-ylmethyl)cyclohexyl)amino)quinolin-3-yl)ethanone dihydrochloride] | 0.027 | 0.0088 | 0.057 | 4.2 | 0.087 | 0.2 |  |  |  |  |  |  | 
CN(C)CCNc1ccc(Nc2c(C(=O)C3CC3)cnc3ccc(-c4cc(Cl)c(O)c(Cl)c4)cc23)cn1 [Example 748, cyclopropyl(6-(3,5-dichloro-4-hydroxyphenyl)-4-(6-(2-(dimethylamino)ethylamino)pyridin-3-ylamino)quinolin-3-yl)methanone hydrochloride] |  |  |  |  | 0.1 |  |  | 0.088 | 0.0026 | 0.032 | 1.6 | 0.069 | 
CC(=O)c1cnc2ccc(-c3cc(F)c(O)c(Cl)c3)cc2c1N[C@H]1CC[C@H](CN2CCCC(N)C2)CC1 (stereo partly drawn) [Example 818] | 0.022 |  | 0.071 | 2.7 | 0.064 | 0.14 | 0.0043 |  |  |  |  |  | 
CC(=O)c1cnc2ccc(-c3cc(F)c(O)c(Cl)c3)cc2c1N[C@H]1CC[C@H](CN2CCC[C@@H]2CO)CC1 [Example 808, 1-(6-(3-chloro-5-fluoro-4-hydroxyphenyl)-4-(1R,4R)-4-(((R)-2-(hydroxymethyl)pyrrolidin-1-yl)methyl)cyclohexylamino)quinolin-3-yl)ethanone hydrochloride] | 0.12 | 0.0065 | 0.11 | 8.2 | 0.22 | 0.22 |  |  |  |  |  |  | 
CC(=O)c1cnc2ccc(-c3cc(F)c(O)c(Cl)c3)cc2c1NC1CCCN(CCN(C)C)C1 (stereo not drawn) [Example 851, 1-(6-(3-chloro-5-fluoro-4-hydroxyphenyl)-4-(1-(2-(dimethylamino)ethyl)piperidin-3-ylamino)quinolin-3-yl)ethanone] | 1.6 |  | 0.65 | 6 | 1.5 | 1.6 | 0.04 |  |  |  |  |  | 
CCC(=O)c1cnc2ccc(-c3cc(Cl)c(O)c(Cl)c3)cc2c1Nc1ccc(N2CCCC(N)C2)nc1 (stereo not drawn) [Example 824, 1-(4-(6-(3-aminopiperidin-1-yl)pyridin-3-ylamino)-6-(3,5-dichloro-4-hydroxyphenyl)quinolin-3-yl)propan-1-one] | 0.021 |  | 0.026 | 0.28 | 0.026 | 0.036 | 0.0016 |  |  |  |  |  | 
CC(=O)c1cnc2ccc(-c3cc(Cl)c(O)c(Cl)c3)cc2c1Nc1ccc(N2CCC(N(C)C)C2)nc1 (stereo not drawn) [Example 854, 1-(6-(3,5-dichloro-4-hydroxyphenyl)-4-((6-(3-(dimethylamino)pyrrolidin-1-yl)pyridin-3-yl)amino)quinolin-3-yl)ethanone] | 0.25 |  | 0.28 |  | 0.51 | 0.39 | 0.0032 |  |  |  |  |  | 10
CCN(CC)C[C@H]1CC[C@H](Nc2c(C(C)=O)cnc3ccc(-c4cc(F)c(O)c(Cl)c4)cc23)CC1 [Example 794] | 0.031 | 0.0056 | 0.074 | 0.75 | 0.094 | 0.077 |  |  |  |  |  |  | 
CC(=O)c1cnc2ccc(-c3cc(F)c(O)c(Cl)c3)cc2c1N[C@H]1CCC[C@@H](CN(C)C)C1 [Example 826, 1-(6-(3-chloro-5-fluoro-4-hydroxyphenyl)-4-((1S,3R)-3-((dimethylamino)methyl)cyclohexylamino)quinolin-3-yl)ethanone hydrochloride] | 0.25 |  | 0.22 | 1.9 | 0.48 | 0.54 | 0.0083 |  |  |  |  |  | 
CCC(=O)c1cnc2ccc(-c3cc(Cl)c(O)c(Cl)c3)cc2c1N[C@H]1CC[C@H](CN2CCCC2)CC1 [Example 843] | 0.15 |  | 0.057 | 4.2 | 0.19 | 0.15 | 0.0016 |  |  |  |  |  | 
CC(=O)c1cnc2ccc(-c3cc(Cl)c(O)c(Cl)c3)cc2c1N[C@H]1CC[C@H](CN2CCNCC2)CC1 [Example 772, 1-(6-(3,5-dichloro-4-hydroxyphenyl)-4-((trans-4-(piperazin-1-ylmethyl)cyclohexyl)amino)quinolin-3-yl)ethanone dihydrochloride] | 0.058 | 0.0021 | 0.076 | 3.2 | 0.14 | 0.26 |  |  |  |  |  |  | 
COc1cc(-c2ccc3ncc(C(C)=O)c(Nc4ccc(N5CCC(N)C5)nc4)c3c2)cc(Cl)c1O (stereo not drawn) [Example 774, 1-(4-(6-(3-aminopyrrolidin-1-yl)pyridin-3-ylamino)-6-(3-chloro-4-hydroxy-5-methoxyphenyl)quinolin-3-yl)ethanone] | 0.034 | 0.0019 | 0.056 | 0.71 | 0.082 | 0.045 |  |  |  |  |  |  | 
CCN(C)C[C@H]1CC[C@H](Nc2c(C(C)=O)cnc3ccc(-c4cc(Cl)c(O)c(Cl)c4)cc23)CC1 [Example 817, 1-(6-(3,5-dichloro-4-hydroxyphenyl)-4-((1R,4R)-4-((ethyl(methyl)amino)methyl)cyclohexylamino)quinolin-3-yl)ethanone] | 0.097 |  | 0.074 | 11 | 0.12 | 0.15 | 0.0014 |  |  |  |  |  | 
CC(=O)c1cnc2ccc(-c3cc(Cl)c(O)c(Cl)c3)cc2c1Nc1ccc(OCCN(C)C)nc1 [Example 852, 1-(6-(3,5-dichloro-4-hydroxyphenyl)-4-(6-(2-(dimethylamino)ethoxy)pyridin-3-ylamino)quinolin-3-yl)ethanone hydrochloride] | 0.16 |  | 0.088 | 22 | 0.55 | 0.29 | 0.0028 |  |  |  |  |  | 
O=C(c1cnc2ccc(-c3cc(F)c(O)c(Cl)c3)cc2c1Nc1cccc(CCN2CCCC2)c1)C1CC1 [Example 799, {6-(3-Chloro-5-fluoro-4-hydroxyphenyl)-4-[3-(2-(pyrrolidin-1-yl)ethyl)phenylamino]quinolin-3-yl}(cyclopropyl)methanone] | 0.52 | 0.0047 | 0.079 | 10 | 0.25 | 0.081 |  |  |  |  |  |  | 
CCC(=O)c1cnc2ccc(-c3cc(Cl)c(O)c(Cl)c3)cc2c1Nc1ccc(CN(C)C)cc1 [Example 771, 1-(6-(3,5-dichloro-4-hydroxyphenyl)-4-((4-((dimethylamino)methyl)phenyl)amino)quinolin-3-yl)propan-1-one] | 0.072 | 0.0054 | 0.045 | 0.72 | 0.16 | 0.095 |  |  |  |  |  |  | 
